Test results as given in US20230050965A1, “SSTR5 ANTAGONISTS” (Kallyope, Inc., priority 2019, published 2023).

Assays:
[1] = target: T1, human SSTR5 (Homo sapiens, UniProt P35346); test: Inositol phosphate (IP1) accumulation assay, antagonist mode; format: cell-based; conditions: CHO-K1 cells stably co-expressing human SSTR5 with Gqi5; pre-incubation with antagonist, then SST28 agonist; IP1 HTRF readout
T1 construct: expressed in transfected cells
From the text: Inositol Phosphate Accumulation Assay
CHO-K1 cells stably co-expressing human SSTR5 with Gqi5 were developed using Jump-In technology from Thermo-Fisher. Gqi5 is the mouse G alpha q protein, that was modified to interact with Gi-coupled GPCRs as described previously (Coward, P.; Chan, S. D.; Wada, H. G.; Humphries, G. M.; Conklin, B. R. Chimeric G proteins Allow a High-Throughput Signaling Assay of Gi-Coupled Receptors. Anal Biochem. 1999, 270(2), 242-248).
Co-expression of Gqi5 with SSTR5 allowed monitoring of SSTR5 activity by following IP1 accumulation. The assay was performed in a 384-well plate format using the IP1 assay kit from Cis-Bio in an antagonist mode, i.e., pre-incubation with antagonist following by receptor activation by agonist at a concentration generating 90% of full activation. Frozen cells expressing human SSTR5 were thawed, washed, and then plated in DMEM supplemented with 10% FBS and non-essential amino acids. 40 μL of 2.5×10^5 cells/mL were plated on a Poly D-Lysine coated 384-well white plate. The cells were then incubated for 16 hr. at 37° C./5% CO2. After 16 hour the medium was removed, and 10 μL of stimulation buffer was added to the cells. Test compounds were dissolved in DMSO at concentrations 2000-fold that of the final assay concentrations. 7.5 nL compound solutions were transferred to the cell plates using a Labcyte Echo® acoustic liquid handler. The plates were then incubated for 15 minutes at 37° C./5% CO2. After the first incubation, 5 μL of 30 nM SST28 were added to the cells, and the cells were incubated for 90 minutes at 37° C./5% CO2. 5 μL of detection buffer (prepared as described in the IP-1 kit) was added to each well, and the plates were incubated at RT for 1 hour.
TR-FRET was measured using a ClarioSTAR plate reader, calculating the ratio between emissions at 665 nm and 620 nm (HTRF ratio). The HTRF ratio for positive (Max) and negative (Min) controls were used to normalize HTRF data and generate values for % inhibition. IC50 and maximal inhibition values were determined using a standard 4-parameter fit.

[2] = Oral bioavailability after oral dosing in rat; conditions: in vivo, Sprague Dawley rats, IV 1 mg/kg, PO 5 mg/kg, read-out: F % (oral bioavailability)
Description: Example A-2: Oral Bioavailability of the Compounds after Oral Dosing in Rat
Oral bioavailability of the compounds was determined in Sprague Dawley rats. The table below summarizes the results. Each compound was dosed intravenously (IV) at 1 mg/kg and orally (PO) 5 mg/kg using the respective vehicles listed below. The compounds display low (<10%) oral bioavailability (F %).

T1 sequence (P35346 whole entry): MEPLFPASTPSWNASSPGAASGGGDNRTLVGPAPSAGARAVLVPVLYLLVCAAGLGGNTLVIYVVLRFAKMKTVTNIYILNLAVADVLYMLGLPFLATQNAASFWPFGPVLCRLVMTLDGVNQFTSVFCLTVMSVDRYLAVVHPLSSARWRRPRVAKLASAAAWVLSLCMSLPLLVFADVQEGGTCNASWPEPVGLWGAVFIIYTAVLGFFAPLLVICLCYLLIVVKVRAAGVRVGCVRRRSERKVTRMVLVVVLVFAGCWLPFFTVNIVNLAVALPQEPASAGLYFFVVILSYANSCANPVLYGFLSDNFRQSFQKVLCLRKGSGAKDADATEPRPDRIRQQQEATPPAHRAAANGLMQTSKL

Compound	IC50 [1] [nM]	bioavailability [2] [%]
CCOc1cc(C(=O)OC)c(C2CC2)cc1CN1CCC2(CC1)CC(=O)N(c1ccc(CCCCNC(N)=O)cc1)C2 [Compound 20, methyl 2-cyclopropyl-5-ethoxy-4-((3-oxo-2-(4-(4-ureidobutyl)phenyl)-2,8-diazaspiro[4.5]decan-8-yl)methyl)benzoate]	1000 to 5000	
CCOc1cc(-c2ccc(F)cc2)c(C2CC2)cc1CN1CCC2(CC1)CN(C13CC(CP(=O)(O)O)(C1)C3)C(=O)O2 [Compound 12, ((3-(8-((2-cyclopropyl-5-ethoxy-4′-fluoro-[1,1′-biphenyl]-4-yl)methyl)-2-oxo-1-oxa-3,8-diazaspiro[4.5]decan-3-yl)bicyclo[1.1.1]pentan-1-yl)methyl)phosphonic acid]	≤ 100	
CCOc1cc(-c2ccc(F)cc2)c(C2CC2)cc1CN1CCC2(CC1)CN(c1ccc(P(=O)(O)OCC)cc1)C(=O)N2 [Compound 25, ethyl hydrogen (4-(8-((2-cyclopropyl-5-ethoxy-4′-fluoro-[1,1′-biphenyl]-4-yl)methyl)-2-oxo-1,3,8-triazaspiro[4.5]decan-3-yl)phenyl)phosphonate]	≤ 100	
CCOc1cc(-c2ccc(F)cc2)c(C2CC2)cc1CN1CCC2(CC1)CN(c1ccc(CCNC(=N)NC(=N)N)cc1)C(=O)O2 [Compound 14, 1-carbamimidoyl-3-[2-[4-[8-[[5-cyclopropyl-2-ethoxy-4-(4-fluorophenyl)phenyl]methyl]-2-oxo-1-oxa-3,8-diazaspiro[4.5]decan-3-yl]phenyl]ethyl]guanidine]	≤ 100	
CCOc1cc(C(=O)OC)c(C2CC2)cc1CN1CCC2(CC1)CC(=O)N(c1ccc(CCCCNS(C)(=O)=O)cc1)C2 [Compound 18, methyl 2-cyclopropyl-5-ethoxy-4-((2-(4-(4-(methylsulfonamido)butyl)phenyl)-3-oxo-2,8-diazaspiro[4.5]decan-8-yl)methyl)benzoate]	1000 to 5000	
CCOc1nc(-c2ccc(F)cc2)c(C2CC2)cc1CN1CCC2(CC1)CN(C13CC(CP(=O)(O)O)(C1)C3)C(=O)O2 [Compound 11, ((3-(8-((5-cyclopropyl-2-ethoxy-6-(4-fluorophenyl)pyridin-3-yl)methyl)-2-oxo-1-oxa-3,8-diazaspiro[4.5]decan-3-yl)bicyclo[1.1.1]pentan-1-yl)methyl)phosphonic acid]	≤ 100	
CCOc1cc(-c2ccc(F)cc2)c(C2CC2)cc1CN1CCN(C(=O)Cc2ccc(P(=O)(O)OCC)cc2)CC1 [Compound 40, ethyl hydrogen (4-(2-(4-((2-cyclopropyl-5-ethoxy-4′-fluoro-[1,1′-biphenyl]-4-yl)methyl)piperazin-1-yl)-2-oxoethyl)phenyl)phosphonate]	≤ 100	
CCOc1cc(-c2ccc(F)cc2)c(C2CC2)cc1CN1CCC2(CC1)CC(=O)N(c1ccc(P(C)(=O)O)cc1)C2 [Compound 7, (4-(8-((2-cyclopropyl-5-ethoxy-4′-fluoro-[1,1′-biphenyl]-4-yl)methyl)-3-oxo-2,8-diazaspiro[4.5]decan-2-yl)phenyl)(methyl)phosphinic acid]	≤ 100	
CCOc1cc(-c2ccc(F)cc2)c(C2CC2)cc1CN1CCC2(CC1)CN([C@H]1CC[C@H](P(=O)(O)O)CC1)C(=O)O2 (single isomer, unassigned) [Compound 34, ((trans)-4-(8-((2-cyclopropyl-5-ethoxy-4'-fluoro-[1,1'-biphenyl]-4-yl)methyl)-2-oxo-1-oxa-3,8-diazaspiro[4.5]decan-3-yl)cyclohexyl)phosphonic acid]	≤ 100	

Results, then the compound that gave them:

IC50 [1] [nM]	bioavailability [2] [%]	Compound
≤ 100	8.7	CCOc1cc(-c2ccc(F)cc2)c(C2CC2)cc1CN1CCC2(CC1)CN(c1ccc(P(C)(=O)O)cc1)C(=O)O2 [Compound 2, (4-(8-((2-cyclopropyl-5-ethoxy-4′-fluoro-[1,1′-biphenyl]-4-yl)methyl)-2-oxo-1-oxa-3,8-diazaspiro[4.5]decan-3-yl)phenyl)(methyl)phosphinic acid]
≤ 100	0.2	CCOc1cc(-c2ccc(F)cn2)c(C2CC2)cc1CN1CCC2(CC1)CN(c1ccc(P(=O)(O)O)cc1)C(=O)O2 [Compound 9, (4-(8-(5-cyclopropyl-2-ethoxy-4-(5-fluoropyridin-2-yl)benzyl)-2-oxo-1-oxa-3,8-diazaspiro[4.5]decan-3-yl)phenyl)phosphonic acid]
≤ 100	1.9	CCOc1cc(-c2ccc(F)cc2)c(C2CC2)cc1CN1CCC2(CC1)CN(c1ccc([PH](=O)O)cc1)C(=O)O2 [Compound 3, (4-(8-((2-cyclopropyl-5-ethoxy-4′-fluoro-[1,1′-biphenyl]-4-yl)methyl)-2-oxo-1-oxa-3,8-diazaspiro[4.5]decan-3-yl)phenyl)phosphinic acid]
≤ 100		CCOc1cc(-c2nc(C)no2)c(C2CC2)cc1CN1CCC2(CC1)CN(c1ccc(P(=O)(O)O)cc1)C(=O)O2 [Compound 26, (4-(8-(5-cyclopropyl-2-ethoxy-4-(3-methyl-1,2,4-oxadiazol-5-yl)benzyl)-2-oxo-1-oxa-3,8-diazaspiro[4.5]decan-3-yl)phenyl)phosphonic acid]
≤ 100		CCOc1cc(C(=O)OC)c(C2CC2)cc1CN1CCC2(CC1)CN(c1ccc(P(=O)(O)O)cc1)C(=O)N2 [Compound 21, (4-(8-(5-cyclopropyl-2-ethoxy-4-(methoxycarbonyl)benzyl)-2-oxo-1,3,8-triazaspiro[4.5]decan-3-yl)phenyl)phosphonic acid]
≤ 100		CCOc1cc(-c2ccc(F)cc2)c(C(C)C)cc1CN1CCC2(CC1)CN(c1ccc(P(=O)(O)O)cc1)C(=O)O2 [Compound 37, (4-(8-((5-ethoxy-4'-fluoro-2-isopropyl-[1,1'-biphenyl]-4-yl)methyl)-2-oxo-1-oxa-3,8-diazaspiro[4.5]decan-3-yl)phenyl)phosphonic acid]
≤ 100		CCOc1cc(-c2nc(C)no2)c(C2CC2)cc1CN1CCC2(CC1)CN(c1ccc(P(=O)(O)O)cc1)C(=O)N2 [Compound 27, (4-(8-(5-cyclopropyl-2-ethoxy-4-(3-methyl-1,2,4-oxadiazol-5-yl)benzyl)-2-oxo-1,3,8-triazaspiro[4.5]decan-3-yl)phenyl)phosphonic acid]
≤ 100		CCOc1cc(-c2ccc(F)cc2)c(C2CCC2)cc1CN1CCC2(CC1)CN(c1ccc(P(=O)(O)O)cc1)C(=O)O2 [Compound 36, (4-(8-((2-cyclobutyl-5-ethoxy-4'-fluoro-[1,1'-biphenyl]-4-yl)methyl)-2-oxo-1-oxa-3,8-diazaspiro[4.5]decan-3-yl)phenyl)phosphonic acid]
≤ 100	0.9	CCOc1cc(-c2ccc(F)cc2)c(C2CC2)cc1CN1CCC2(CC1)CN(c1ccc(P(=O)(O)O)cc1)C(=O)O2 [Compound 1, (4-(8-((2-cyclopropyl-5-ethoxy-4′-fluoro-[1,1′-biphenyl]-4-yl)methyl)-2-oxo-1-oxa-3,8-diazaspiro[4.5]decan-3-yl)phenyl)phosphonic acid]
